From publication PMC7026418, “The kinase polypharmacology landscape of clinical PARP inhibitors” (Scientific Reports, 2020)
Read-outs that look alike come from different tables or passages of the source.

Key:
Assay in all cases: biochemical
Design in all cases: DiscoveRx KINOMEscan active site-directed competition binding; percent of control kinase bound to immobilised ligand
[1] = biological target: T1, ABL1(F317L)-phosphorylated (Homo sapiens, UniProt P00519, F317L)
T1 construct: phosphorylated
T1 sequence (P00519 whole entry F317L): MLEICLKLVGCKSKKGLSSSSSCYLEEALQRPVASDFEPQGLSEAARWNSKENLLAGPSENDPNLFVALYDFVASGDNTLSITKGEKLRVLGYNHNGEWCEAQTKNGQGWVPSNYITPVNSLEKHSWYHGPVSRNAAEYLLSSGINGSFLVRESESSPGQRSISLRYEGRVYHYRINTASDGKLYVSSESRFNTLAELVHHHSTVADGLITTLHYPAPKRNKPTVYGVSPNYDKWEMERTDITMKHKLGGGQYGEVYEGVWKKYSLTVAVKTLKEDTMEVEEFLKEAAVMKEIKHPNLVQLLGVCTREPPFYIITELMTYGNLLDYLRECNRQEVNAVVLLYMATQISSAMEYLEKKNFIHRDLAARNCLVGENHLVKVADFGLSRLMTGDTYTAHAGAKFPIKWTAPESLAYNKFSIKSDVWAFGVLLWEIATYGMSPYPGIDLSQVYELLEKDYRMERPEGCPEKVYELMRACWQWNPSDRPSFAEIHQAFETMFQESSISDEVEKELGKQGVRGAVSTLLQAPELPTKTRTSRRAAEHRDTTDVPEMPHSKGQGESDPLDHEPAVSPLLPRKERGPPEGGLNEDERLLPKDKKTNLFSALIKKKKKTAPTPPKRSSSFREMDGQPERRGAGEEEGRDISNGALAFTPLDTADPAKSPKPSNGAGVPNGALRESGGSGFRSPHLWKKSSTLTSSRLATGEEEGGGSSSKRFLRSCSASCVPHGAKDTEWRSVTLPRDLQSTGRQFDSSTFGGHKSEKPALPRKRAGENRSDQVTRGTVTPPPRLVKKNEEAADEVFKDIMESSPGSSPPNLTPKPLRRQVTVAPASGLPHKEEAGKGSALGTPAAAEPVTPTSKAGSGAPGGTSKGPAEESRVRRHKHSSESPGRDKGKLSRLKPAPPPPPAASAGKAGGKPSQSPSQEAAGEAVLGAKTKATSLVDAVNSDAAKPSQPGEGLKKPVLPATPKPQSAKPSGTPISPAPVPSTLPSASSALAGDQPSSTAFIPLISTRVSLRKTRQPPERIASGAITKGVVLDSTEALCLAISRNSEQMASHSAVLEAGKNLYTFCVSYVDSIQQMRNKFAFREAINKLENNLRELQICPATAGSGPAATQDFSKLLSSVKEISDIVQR

ANKK1 = biological target: T2, ANKK1 (Homo sapiens, UniProt Q8NFD2)
T2 sequence (Q8NFD2 1-765): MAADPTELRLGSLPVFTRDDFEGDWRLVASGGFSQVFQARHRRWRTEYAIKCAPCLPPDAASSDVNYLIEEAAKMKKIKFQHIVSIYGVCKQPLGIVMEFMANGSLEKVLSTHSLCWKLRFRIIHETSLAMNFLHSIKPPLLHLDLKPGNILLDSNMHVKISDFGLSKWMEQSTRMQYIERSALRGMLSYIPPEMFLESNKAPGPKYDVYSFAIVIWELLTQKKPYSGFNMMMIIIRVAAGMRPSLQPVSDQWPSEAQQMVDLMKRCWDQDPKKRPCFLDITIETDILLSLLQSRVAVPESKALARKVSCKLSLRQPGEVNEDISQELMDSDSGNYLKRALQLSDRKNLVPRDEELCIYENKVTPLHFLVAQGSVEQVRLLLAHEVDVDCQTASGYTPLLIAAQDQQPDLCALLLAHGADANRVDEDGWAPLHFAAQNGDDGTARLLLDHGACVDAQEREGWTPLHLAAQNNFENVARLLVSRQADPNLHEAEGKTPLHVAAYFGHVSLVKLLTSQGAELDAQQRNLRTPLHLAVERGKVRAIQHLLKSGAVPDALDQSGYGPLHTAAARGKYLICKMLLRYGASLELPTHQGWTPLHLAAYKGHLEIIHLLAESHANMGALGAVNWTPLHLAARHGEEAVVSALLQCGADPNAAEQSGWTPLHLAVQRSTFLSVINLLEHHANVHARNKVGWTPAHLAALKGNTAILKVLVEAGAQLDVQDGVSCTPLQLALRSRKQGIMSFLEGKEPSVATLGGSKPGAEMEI

BRK = biological target: T3, BRK (Homo sapiens, UniProt Q13882)
T3 construct: gene PTK6

EGFR(G719S) = EGFR(G719S) (Homo sapiens, UniProt P00533, G719S)
Sequence of EGFR(G719S) (P00533 whole entry G719S): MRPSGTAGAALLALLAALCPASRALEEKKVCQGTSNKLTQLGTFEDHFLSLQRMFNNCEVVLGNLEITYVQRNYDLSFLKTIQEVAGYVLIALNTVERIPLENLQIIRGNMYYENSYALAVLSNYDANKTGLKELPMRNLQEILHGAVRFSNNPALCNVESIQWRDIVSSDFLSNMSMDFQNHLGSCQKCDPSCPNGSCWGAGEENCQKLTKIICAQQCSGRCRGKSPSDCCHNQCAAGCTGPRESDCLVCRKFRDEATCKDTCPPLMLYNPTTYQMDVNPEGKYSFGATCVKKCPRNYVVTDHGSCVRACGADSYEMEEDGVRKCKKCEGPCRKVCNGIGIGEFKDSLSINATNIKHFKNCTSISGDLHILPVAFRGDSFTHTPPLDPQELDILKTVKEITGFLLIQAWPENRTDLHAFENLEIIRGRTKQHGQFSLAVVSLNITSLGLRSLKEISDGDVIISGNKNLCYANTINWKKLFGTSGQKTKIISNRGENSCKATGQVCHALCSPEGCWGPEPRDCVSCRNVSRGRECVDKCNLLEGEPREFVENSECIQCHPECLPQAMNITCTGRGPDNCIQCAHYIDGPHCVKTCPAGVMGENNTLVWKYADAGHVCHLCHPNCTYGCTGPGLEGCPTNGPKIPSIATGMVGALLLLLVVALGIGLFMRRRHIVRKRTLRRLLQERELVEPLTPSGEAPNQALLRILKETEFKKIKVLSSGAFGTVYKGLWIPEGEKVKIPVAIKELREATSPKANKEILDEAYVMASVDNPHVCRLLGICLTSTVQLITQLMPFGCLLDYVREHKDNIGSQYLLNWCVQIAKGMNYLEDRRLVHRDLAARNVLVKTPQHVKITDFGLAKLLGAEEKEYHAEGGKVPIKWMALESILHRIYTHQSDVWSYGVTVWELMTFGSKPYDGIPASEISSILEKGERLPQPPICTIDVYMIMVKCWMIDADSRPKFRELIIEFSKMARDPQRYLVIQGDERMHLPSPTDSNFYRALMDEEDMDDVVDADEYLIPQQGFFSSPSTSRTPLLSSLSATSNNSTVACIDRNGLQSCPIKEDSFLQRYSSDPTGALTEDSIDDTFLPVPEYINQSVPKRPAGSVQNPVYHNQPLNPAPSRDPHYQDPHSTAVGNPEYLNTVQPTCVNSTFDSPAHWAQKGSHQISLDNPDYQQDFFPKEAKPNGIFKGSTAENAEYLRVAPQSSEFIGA

MLK2 = biological target: T4, MLK2 (Homo sapiens, UniProt Q02779)
T4 construct: gene MAP3K10
T4 sequence (Q02779 whole entry): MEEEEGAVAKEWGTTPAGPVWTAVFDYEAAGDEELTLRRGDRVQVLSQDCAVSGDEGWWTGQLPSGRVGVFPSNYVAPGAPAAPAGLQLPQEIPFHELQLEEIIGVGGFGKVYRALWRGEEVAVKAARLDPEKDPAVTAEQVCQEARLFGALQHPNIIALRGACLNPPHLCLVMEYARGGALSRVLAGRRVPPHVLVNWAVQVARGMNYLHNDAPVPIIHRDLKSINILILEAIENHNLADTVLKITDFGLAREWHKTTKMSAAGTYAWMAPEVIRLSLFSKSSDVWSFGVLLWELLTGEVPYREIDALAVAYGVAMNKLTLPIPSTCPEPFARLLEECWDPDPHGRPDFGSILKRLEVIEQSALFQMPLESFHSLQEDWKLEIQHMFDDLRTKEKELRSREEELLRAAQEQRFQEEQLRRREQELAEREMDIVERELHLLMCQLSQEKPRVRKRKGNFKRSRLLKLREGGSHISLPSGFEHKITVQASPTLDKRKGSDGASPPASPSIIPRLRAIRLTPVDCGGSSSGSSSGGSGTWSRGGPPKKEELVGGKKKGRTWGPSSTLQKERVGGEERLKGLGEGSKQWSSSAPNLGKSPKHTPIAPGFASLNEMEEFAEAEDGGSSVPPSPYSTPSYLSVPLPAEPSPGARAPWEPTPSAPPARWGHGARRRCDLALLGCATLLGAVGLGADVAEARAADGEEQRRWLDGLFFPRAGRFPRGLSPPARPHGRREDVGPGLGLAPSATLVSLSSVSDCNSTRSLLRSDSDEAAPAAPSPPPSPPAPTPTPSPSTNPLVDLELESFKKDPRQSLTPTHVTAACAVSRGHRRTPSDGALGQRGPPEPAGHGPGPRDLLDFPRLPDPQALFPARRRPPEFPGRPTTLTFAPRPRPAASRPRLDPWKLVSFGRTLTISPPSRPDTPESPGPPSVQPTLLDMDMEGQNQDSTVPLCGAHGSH

MTOR = MTOR (Homo sapiens, UniProt P42345)
OSR1 = biological target: T5, OSR1 (Homo sapiens, UniProt O95747)
T5 construct: gene OXSR1
T5 sequence (O95747 whole entry): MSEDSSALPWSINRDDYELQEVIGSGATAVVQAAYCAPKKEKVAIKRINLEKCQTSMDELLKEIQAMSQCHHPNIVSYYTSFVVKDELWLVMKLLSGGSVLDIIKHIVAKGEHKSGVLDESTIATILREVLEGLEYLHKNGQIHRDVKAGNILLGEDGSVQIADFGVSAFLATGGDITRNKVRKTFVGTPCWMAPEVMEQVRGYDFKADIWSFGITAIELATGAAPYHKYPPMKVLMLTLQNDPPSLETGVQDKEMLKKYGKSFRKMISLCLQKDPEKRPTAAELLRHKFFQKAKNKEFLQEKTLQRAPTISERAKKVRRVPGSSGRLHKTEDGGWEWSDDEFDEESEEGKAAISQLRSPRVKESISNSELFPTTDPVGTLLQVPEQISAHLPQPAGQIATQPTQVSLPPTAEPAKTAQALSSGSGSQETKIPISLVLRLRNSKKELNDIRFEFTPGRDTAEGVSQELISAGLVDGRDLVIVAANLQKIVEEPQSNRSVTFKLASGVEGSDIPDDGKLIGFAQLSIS

RIOK2 = RIOK2 (Homo sapiens, UniProt Q9BVS4)
Sequence of RIOK2 (Q9BVS4 whole entry): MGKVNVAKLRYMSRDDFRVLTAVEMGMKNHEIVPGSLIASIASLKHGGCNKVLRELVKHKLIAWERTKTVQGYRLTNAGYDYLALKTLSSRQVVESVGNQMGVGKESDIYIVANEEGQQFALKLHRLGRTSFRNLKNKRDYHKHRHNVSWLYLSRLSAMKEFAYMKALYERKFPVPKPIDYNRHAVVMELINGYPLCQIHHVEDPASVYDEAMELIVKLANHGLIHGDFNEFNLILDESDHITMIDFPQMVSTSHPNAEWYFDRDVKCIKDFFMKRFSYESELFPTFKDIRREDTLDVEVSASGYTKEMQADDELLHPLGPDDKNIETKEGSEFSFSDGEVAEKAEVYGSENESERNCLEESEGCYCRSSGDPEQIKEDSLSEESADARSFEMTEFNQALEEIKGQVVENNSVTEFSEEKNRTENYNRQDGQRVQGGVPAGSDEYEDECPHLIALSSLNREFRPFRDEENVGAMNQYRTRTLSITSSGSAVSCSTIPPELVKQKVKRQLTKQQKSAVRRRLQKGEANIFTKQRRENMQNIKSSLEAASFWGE

SIK = biological target: T6, SIK (Homo sapiens, UniProt P57059)
T6 construct: gene SIK1

STK35 = STK35 (Homo sapiens, UniProt Q8TDR2)
Sequence of STK35 (Q8TDR2 whole entry): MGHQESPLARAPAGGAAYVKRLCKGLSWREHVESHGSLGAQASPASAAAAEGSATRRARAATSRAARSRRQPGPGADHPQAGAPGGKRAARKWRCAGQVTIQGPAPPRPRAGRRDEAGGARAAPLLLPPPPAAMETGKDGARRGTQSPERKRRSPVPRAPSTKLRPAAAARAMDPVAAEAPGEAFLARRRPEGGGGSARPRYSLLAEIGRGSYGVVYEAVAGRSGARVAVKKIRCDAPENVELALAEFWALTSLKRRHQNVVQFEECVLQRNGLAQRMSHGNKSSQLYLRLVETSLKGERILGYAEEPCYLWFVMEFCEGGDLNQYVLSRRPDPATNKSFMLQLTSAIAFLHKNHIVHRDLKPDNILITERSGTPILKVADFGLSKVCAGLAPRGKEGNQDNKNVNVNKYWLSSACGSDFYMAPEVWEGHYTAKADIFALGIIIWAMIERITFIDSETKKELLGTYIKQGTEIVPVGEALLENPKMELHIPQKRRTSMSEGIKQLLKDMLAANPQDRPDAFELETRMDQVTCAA

TBK1 = biological target: T7, TBK1 (Homo sapiens, UniProt Q9UHD2)
T7 sequence (Q9UHD2 1-729): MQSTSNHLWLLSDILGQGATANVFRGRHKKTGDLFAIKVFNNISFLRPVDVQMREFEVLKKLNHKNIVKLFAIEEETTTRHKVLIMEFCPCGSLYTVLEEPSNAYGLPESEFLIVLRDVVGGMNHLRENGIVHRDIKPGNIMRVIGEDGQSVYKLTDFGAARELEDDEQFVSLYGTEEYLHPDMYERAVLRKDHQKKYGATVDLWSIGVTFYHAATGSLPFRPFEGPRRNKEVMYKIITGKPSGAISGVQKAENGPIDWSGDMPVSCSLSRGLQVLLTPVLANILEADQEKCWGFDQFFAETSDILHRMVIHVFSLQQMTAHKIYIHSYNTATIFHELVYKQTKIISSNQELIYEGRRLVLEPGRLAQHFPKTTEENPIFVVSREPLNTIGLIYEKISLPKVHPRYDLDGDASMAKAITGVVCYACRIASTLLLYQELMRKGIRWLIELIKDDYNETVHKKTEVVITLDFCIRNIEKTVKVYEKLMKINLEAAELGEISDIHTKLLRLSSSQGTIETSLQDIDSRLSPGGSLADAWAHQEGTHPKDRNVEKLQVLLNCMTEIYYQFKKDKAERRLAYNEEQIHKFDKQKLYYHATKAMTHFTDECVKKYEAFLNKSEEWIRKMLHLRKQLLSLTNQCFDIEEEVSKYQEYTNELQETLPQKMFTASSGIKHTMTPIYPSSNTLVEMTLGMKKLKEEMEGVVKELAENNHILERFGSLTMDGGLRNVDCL

[2] = read-out: Talazoparib (BMN 673) / %Ctrl @ 10000nM
[3] = read-out: Olaparib / %Ctrl @ 10000nM
[4] = read-out: Niraparib (MK-4827) / %Ctrl @ 10000nM
[5] = read-out: Rucaparib / %Ctrl @ 10000nM, binding competition, % of control

Structure (SMILES): Cn1ncnc1[C@H]1c2n[nH]c(=O)c3cc(F)cc(c23)N[C@@H]1c1ccc(F)cc1 [Talazoparib]
- percent of control binding at 10 µM [1, 2]: 50%
- percent of control binding at 10 µM (ANKK1; [2]): 100%
- percent of control binding at 10 µM (BRK; [2]): 100%
- percent of control binding at 10 µM (EGFR(G719S); [2]): 99%
- percent of control binding at 10 µM (MLK2; [2]): 70%
- percent of control binding at 10 µM (MTOR; [2]): 35%
- percent of control binding at 10 µM (OSR1; [2]): 90%
- percent of control binding at 10 µM (RIOK2; [2]): 100%
- percent of control binding at 10 µM (SIK; [2]): 78%
- percent of control binding at 10 µM (STK35; [2]): 100%
- percent of control binding at 10 µM (TBK1; [2]): 44%

Structure (SMILES): O=C(c1cc(Cc2n[nH]c(=O)c3ccccc23)ccc1F)N1CCN(C(=O)C2CC2)CC1 [Olaparib]
- percent of control binding at 10 µM [1, 3]: 95%
- percent of control binding at 10 µM (ANKK1; [3]): 90%
- percent of control binding at 10 µM (BRK; [3]): 88%
- percent of control binding at 10 µM (EGFR(G719S); [3]): 94%
- percent of control binding at 10 µM (MLK2; [3]): 97%
- percent of control binding at 10 µM (MTOR; [3]): 94%
- percent of control binding at 10 µM (OSR1; [3]): 88%
- percent of control binding at 10 µM (RIOK2; [3]): 84%
- percent of control binding at 10 µM (SIK; [3]): 95%
- percent of control binding at 10 µM (STK35; [3]): 100%
- percent of control binding at 10 µM (TBK1; [3]): 91%

Structure (SMILES): NC(=O)c1cccc2cn(-c3ccc([C@@H]4CCCNC4)cc3)nc12 [Niraparib]
- percent of control binding at 10 µM [1, 4]: 100%
- percent of control binding at 10 µM (ANKK1; [4]): 100%
- percent of control binding at 10 µM (BRK; [4]): 91%
- percent of control binding at 10 µM (EGFR(G719S); [4]): 74%
- percent of control binding at 10 µM (MLK2; [4]): 69%
- percent of control binding at 10 µM (MTOR; [4]): 85%
- percent of control binding at 10 µM (OSR1; [4]): 98%
- percent of control binding at 10 µM (RIOK2; [4]): 67%
- percent of control binding at 10 µM (SIK; [4]): 93%
- percent of control binding at 10 µM (STK35; [4]): 92%
- percent of control binding at 10 µM (TBK1; [4]): 75%

Structure (SMILES): CNCc1ccc(-c2[nH]c3cc(F)cc4c3c2CCNC4=O)cc1 [Rucaparib]
- percent of control binding at 10 µM [1, 5]: 74%
- percent of control binding at 10 µM (ANKK1; [5]): 71%
- percent of control binding at 10 µM (BRK; [5]): 99%
- percent of control binding at 10 µM (EGFR(G719S); [5]): 89%
- percent of control binding at 10 µM (MLK2; [5]): 63%
- percent of control binding at 10 µM (MTOR; [5]): 96%
- percent of control binding at 10 µM (OSR1; [5]): 71%
- percent of control binding at 10 µM (RIOK2; [5]): 69%
- percent of control binding at 10 µM (SIK; [5]): 87%
- percent of control binding at 10 µM (STK35; [5]): 92%
- percent of control binding at 10 µM (TBK1; [5]): 87%
